Measurements: the CheMixHub viscosity set
Values joined by “and” are separate entries in the source; they are usually repeats but may differ in a detail not shown here. Equal values may be shown once.

Test: xn = mol fraction of the nth substance listed

CCOCCO + CCc1ccccc1
viscosity [mPa·s]
Conditions	298.15 K	308.15 K
101 kPa, x1 = 0.0573	0.658	0.557
101 kPa, x1 = 0.1487	0.696	0.597
101 kPa, x1 = 0.2498	0.749	0.648
101 kPa, x1 = 0.3527	0.817	0.708
101 kPa, x1 = 0.4489	0.895	0.773
101 kPa, x1 = 0.4998	0.944	0.812
101 kPa, x1 = 0.5485	0.995	0.852
101 kPa, x1 = 0.6501	1.121	0.945
101 kPa, x1 = 0.7484	1.273	1.05
101 kPa, x1 = 0.8508	1.469	1.178
101 kPa, x1 = 0.9547	1.721	1.331
101.33 kPa, x2 = 0.0993	1.589	–
101.33 kPa, x2 = 0.1968	1.378	–
101.33 kPa, x2 = 0.293	1.22	–
101.33 kPa, x2 = 0.4069	1.055	–
101.33 kPa, x2 = 0.5133	0.929	–
101.33 kPa, x2 = 0.6286	0.822	–
101.33 kPa, x2 = 0.7484	0.736	–
101.33 kPa, x2 = 0.8672	0.677	–

CC(C)CCO + CN1CCCC1=O
298.15 K, 101 kPa
Conditions	viscosity [mPa·s]
x2 = 0.0595	3.229
x2 = 0.1189	2.874
x2 = 0.1501	2.732
x2 = 0.2008	2.549
x2 = 0.2536	2.402
x2 = 0.2994	2.298
x2 = 0.3506	2.205
x2 = 0.4002	2.132
x2 = 0.4519	2.06
x2 = 0.5025	2.015
x2 = 0.5513	1.97
x2 = 0.6039	1.926
x2 = 0.6515	1.889
x2 = 0.7026	1.855
x2 = 0.7505	1.823
x2 = 0.8015	1.791
x2 = 0.8546	1.763
x2 = 0.9046	1.739
x2 = 0.9562	1.715

CC(C)CCO + CN(C)C=O
Conditions	viscosity [mPa·s]
298.15 K, 101 kPa, x2 = 0.5467	1.634

CCn1cc[n+](C)c1.[Cl-] + CN(C)C=O
308.15 K, 101 kPa
Conditions	viscosity [mPa·s]
x1 = 0.0524	1.045
x1 = 0.0867	1.355
x1 = 0.1232	1.705

CCOCCO + CO
298.15 K, 101 kPa
Conditions	viscosity [mPa·s]
x1 = 0.038	0.6216
x1 = 0.0816	0.7062
x1 = 0.1322	0.7916
x1 = 0.1916	0.8844
x1 = 0.2623	0.9885
x1 = 0.3478	1.114
x1 = 0.4534	1.255
x1 = 0.5871	1.422
x1 = 0.7619	1.625

CNC(C)=O + CO
303.15 K, 101 kPa
Conditions	viscosity [mPa·s]
x1 = 0.0999	0.644
x1 = 0.2019	0.798
x1 = 0.3029	0.98
x1 = 0.3939	1.175
x1 = 0.504	1.457
x1 = 0.605	1.778
x1 = 0.6998	2.134
x1 = 0.7934	2.561
x1 = 0.8995	3.14

CC(C)CCO + COCCO
303.15 K, 101.3 kPa
Conditions	viscosity [mPa·s]
x2 = 0.1536	2.477
x2 = 0.2181	2.305
x2 = 0.3068	2.095
x2 = 0.3756	1.955
x2 = 0.4802	1.772
x2 = 0.6881	1.512
x2 = 0.7438	1.47
x2 = 0.8293	1.413
x2 = 0.9356	1.38

CNC(C)=O + COCCO
viscosity [mPa·s], 101.33 kPa
Conditions	308.15 K	313.15 K	318.15 K
x1 = 0.0301	1.362	1.242	1.136
x1 = 0.0501	1.393	1.27	1.16
x1 = 0.0752	1.431	1.304	1.191
x1 = 0.1036	1.476	1.343	1.227
x1 = 0.1301	1.515	1.378	1.259
x1 = 0.17	1.574	1.432	1.307
x1 = 0.2032	1.624	1.477	1.348
x1 = 0.2501	1.696	1.541	1.404
x1 = 0.302	1.776	1.613	1.468
x1 = 0.4032	1.94	1.758	1.596
x1 = 0.5037	2.114	1.91	1.73
x1 = 0.6033	2.308	2.074	1.876
x1 = 0.65	2.409	2.16	1.95
x1 = 0.7021	2.526	2.259	2.038
x1 = 0.7503	2.641	2.357	2.124
x1 = 0.8032	2.775	2.477	2.227
x1 = 0.8524	2.908	2.594	2.328
x1 = 0.9035	3.061	2.724	2.439
x1 = 0.9301	3.145	2.795	2.5
x1 = 0.9702	3.277	2.913	2.597

CNCCO + COCCO
viscosity [mPa·s], 101.3 kPa
Conditions	293.15 K	298.15 K	303.15 K	308.15 K	313.15 K	318.15 K	323.15 K
x1 = 0.101	2.086	1.866	1.677	1.516	1.375	1.254	1.147
x1 = 0.303	3.283	2.869	2.523	2.234	1.988	1.78	1.601
x1 = 0.403	3.985	3.444	3	2.632	2.324	2.064	1.843
x1 = 0.503	4.964	4.234	3.644	3.163	2.766	2.435	2.156
x1 = 0.703	7.364	6.129	5.157	4.384	3.762	3.256	2.839
x1 = 0.901	10.98	8.877	7.286	6.054	5.088	4.323	3.709

CC(C)CCO + COc1ccccc1
viscosity [mPa·s], 101.33 kPa
Conditions	x2 = 0.1002	x2 = 0.2	x2 = 0.3005	x2 = 0.3997	x2 = 0.5004	x2 = 0.6014	x2 = 0.7004	x2 = 0.8003	x2 = 0.9008
303.15 K	2.52	2.023	1.657	1.401	1.216	1.087	0.999	0.944	0.916
313.15 K	1.905	1.545	1.283	1.101	0.974	0.893	0.843	0.816	0.801
323.15 K	1.484	1.224	1.036	0.908	0.823	0.769	0.735	0.715	0.701

CNC(C)=O + CS(C)=O
313 K, 101 kPa
Conditions	viscosity [mPa·s]
x2 = 0.0743	2.725
x2 = 0.177	2.42
x2 = 0.2759	2.198
x2 = 0.3801	2.01
x2 = 0.4764	1.888
x2 = 0.5737	1.78
x2 = 0.6725	1.696
x2 = 0.7647	1.626
x2 = 0.8734	1.567
x2 = 0.9723	1.522

CNCCO + CS(C)=O
viscosity [mPa·s], 101.3 kPa
Conditions	x1 = 0.1038	x1 = 0.2066	x1 = 0.3084	x1 = 0.4095	x1 = 0.5101	x1 = 0.6095	x1 = 0.7084	x1 = 0.8064	x1 = 0.9035
293.15 K	2.286	2.433	2.768	3.144	3.804	4.512	5.755	7.432	9.786
298.15 K	2.054	2.173	2.45	2.754	3.293	3.852	4.836	6.143	7.947
303.15 K	1.858	1.956	2.186	2.435	2.877	3.327	4.116	5.151	6.549
308.15 K	1.691	1.771	1.964	2.168	2.537	2.905	3.542	4.368	5.476
313.15 K	1.547	1.613	1.776	1.946	2.254	2.555	3.077	3.745	4.627
318.15 K	1.419	1.481	1.615	1.755	2.016	2.264	2.697	3.241	3.954
323.15 K	1.309	1.361	1.469	1.594	1.815	2.044	2.383	2.83	3.41

Oc1ccc(Cl)cc1 + C[N+](C)(C)CCO.[Cl-]
Conditions	viscosity
293.15 K, 101 kPa, x2 = 0.333	170.6 mPa·s
298.15 K, 101 kPa, x2 = 0.333	123.2 mPa·s
298.15 K, 101.33 kPa, x1 = 0.7	180.2 mPa·s
298.15 K, 101.33 kPa, x1 = 0.8	108.2 mPa·s and 77.89 mPa·s and 66.12 mPa·s
298.15 K, 101.33 kPa, x1 = 0.9	61.06 mPa·s
303.15 K, 101 kPa, x2 = 0.333	92.75 mPa·s
308.15 K, 101 kPa, x2 = 0.333	71.68 mPa·s
313.15 K, 101 kPa, x2 = 0.333	55.45 mPa·s
318.15 K, 101 kPa, x2 = 0.333	43.94 mPa·s
323.15 K, 101 kPa, x2 = 0.333	35.45 mPa·s

CNC(C)=O + Cc1cc(C)cc(C)c1
308.15 K, 101.33 kPa
Conditions	viscosity [mPa·s]
x1 = 0.0458	0.6101
x1 = 0.3137	1.08
x1 = 0.4362	1.342
x1 = 0.5467	1.621
x1 = 0.646	1.898
x1 = 0.7315	2.174
x1 = 0.8095	2.455
x1 = 0.8779	2.719
x2 = 0.0126	3.191

CCOCCO + Cc1ccc(C)cc1
viscosity [mPa·s], 101 kPa
Conditions	298.15 K	308.15 K
x1 = 0.0551	0.632	0.555
x1 = 0.1489	0.672	0.584
x1 = 0.2499	0.725	0.625
x1 = 0.3507	0.792	0.674
x1 = 0.4514	0.875	0.735
x1 = 0.5001	0.922	0.769
x1 = 0.5497	0.975	0.808
x1 = 0.6526	1.106	0.9
x1 = 0.7513	1.262	1.01
x1 = 0.8499	1.456	1.143
x1 = 0.9549	1.717	1.319
